Assays:
Format in all cases: in vivo
[1] = test system: tomato (Lycopersicon esculentum); assay: Preemergence herbicidal activity, tomato; settings: Solanum lycopersicum, pre-emergence, 336 h; Pre, 2 lb/A
Description: (§1) Using the procedure described below, compounds of the invention are evaluated for control of several of the following plant species:
(§2) The following est procedure is employed. Seeds of selected crops and weeds are planted in soil in flats. For preemergence tests, the flats are treated with the test compound immediately after the planting. For postemergence tests, the seeds are allowed to germinate, and after two weeks the flats are treated with the test compound. The compound to be evaluated is dissolved in acetone, diluted with water, and sprayed over the flats using a carrier volume equivalent to 50 gallons per acre at the rate of application (pounds per acre, lb/A.) specified in the tables. About two weeks after the application of the test compound, the state of growth of the plants is observed and the phytotoxic effect of the compound is evaluated. Tables III and IV give the average percent control achieved by test compounds in terms of the percent of the plants which are killed by the compounds.

[2] = test system: yellow nutsedge (Cyperus esculentus); assay: Preemergence herbicidal activity, yellow nutsedge; settings: Cyperus, pre-emergence, 336 h, 2 lb/A
Description: as §1, §2

[3] = test system: cocklebur (Xanthium pensylvanicum); assay: Preemergence herbicidal activity, cocklebur; settings: Xanthium strumarium, pre-emergence, 336 h, 2 lb/A
Description: as §1, §2

[4] = test system: barnyardgrass (Echinochloa crusgalli); assay: Preemergence herbicidal activity, barnyardgrass; settings: Echinochloa crus-galli, pre-emergence, 336 h; Pre, 2 lb/A
Description: as §1
(§3) The following est procedure is employed. Seeds of selected crops and weeds are planted in soil in flats. For preemergence tests, the flats are treated with the test compound immediately after the planting. For postemergence tests, the seeds are allowed to germinate, and after two weeks the flats are treated with the test compound. The compound to be evaluated is dissolved in acetone, diluted with water, and sprayed over the flats using a carrier volume equivalent to 50 gallons per acre at the rate of application (pounds per acre, lb/A.) specified in the tables.

[5] = test system: yellow nutsedge (Cyperus esculentus); assay: Postemergence herbicidal activity, yellow nutsedge; settings: Cyperus, post-emergence, 336 h, 2 lb/A
Description: as §1, §2

[6] = test system: marigold (Tagetes spp.); assay: Preemergence herbicidal activity, marigold; settings: pre-emergence, 336 h, 2 lb/A
Description: as §1, §2

[7] = test system: tomato (Lycopersicon esculentum); assay: Postemergence herbicidal activity, tomato; settings: Solanum lycopersicum, post-emergence, 336 h, Post, 2 lb/A
Description: as §1, §2

[8] = test system: wild oats (Avena fatua); assay: Postemergence herbicidal activity, wild oats; settings: Avena fatua, post-emergence, 336 h, Post, 2 lb/A; read-out: % control, Wild oat
Description: as §1, §2

[9] = test system: foxtail (Setaria spp.); assay: Preemergence herbicidal activity, foxtail; settings: Setaria, pre-emergence, 336 h; Pre, 2 lb/A
Description: as §1, §2

[10] = test system: morningglory (Ipomoca spp.); assay: Postemergence herbicidal activity, morningglory; settings: Ipomoea, post-emergence, 336 h, 2 lb/A
Description: as §1, §2

[11] = test system: downybrome (Bromus tectorum); assay: Preemergence herbicidal activity, downybrome; settings: Bromus tectorum, pre-emergence, 336 h, Pre, 2 lb/A
Description: as §1, §2

[12] = test system: marigold (Tagetes spp.); assay: Postemergence herbicidal activity, marigold; settings: post-emergence, 336 h, 2 lb/A
Description: as §1, §2

[13] = test system: foxtail (Setaria spp.); assay: Postemergence herbicidal activity, foxtail; settings: Setaria, post-emergence, 336 h, Post, 2 lb/A
Description: as §1, §2

[14] = test system: downybrome (Bromus tectorum); assay: Postemergence herbicidal activity, downybrome; settings: Bromus tectorum, post-emergence, 336 h, Post, 2 lb/A
Description: as §1, §2

[15] = test system: velvetleaf (Abutilon theophrasti); assay: Preemergence herbicidal activity, velvetleaf; settings: Abutilon theophrasti, pre-emergence, 336 h; Pre, 2 lb/A
Description: as §1, §2

[16] = test system: cocklebur (Xanthium pensylvanicum); assay: Postemergence herbicidal activity, cocklebur; settings: Xanthium strumarium, post-emergence, 336 h, 2 lb/A
Description: as §1, §2

[17] = test system: velvetleaf (Abutilon theophrasti); assay: Postemergence herbicidal activity, velvetleaf; settings: Abutilon theophrasti, post-emergence, 336 h, 2 lb/A
Description: as §1, §3

[18] = test system: barnyardgrass (Echinochloa crusgalli); assay: Postemergence herbicidal activity, barnyardgrass; settings: Echinochloa crus-galli, post-emergence, 336 h; Post, 2 lb/A
Description: as §1, §3

[19] = test system: morningglory (Ipomoca spp.); assay: Preemergence herbicidal activity, morningglory; settings: Ipomoea, pre-emergence, 336 h, 2 lb/A
Description: as §1, §2

[20] = test system: wild oats (Avena fatua); assay: Preemergence herbicidal activity, wild oats; settings: Avena fatua, pre-emergence, 336 h, Pre, 2 lb/A; read-out: % control, Wild oat
Description: as §1, §2

Row | SMILES | pest or weed control at 2241.7 g/ha [1] | pest or weed control at 2241.7 g/ha [2] | pest or weed control at 2241.7 g/ha [3] | pest or weed control at 2241.7 g/ha [4] | pest or weed control at 2241.7 g/ha [5] | pest or weed control at 2241.7 g/ha [6] | pest or weed control at 2241.7 g/ha [7] | pest or weed control at 2241.7 g/ha [8] | pest or weed control at 2241.7 g/ha [9] | pest or weed control at 2241.7 g/ha [10] | pest or weed control at 2241.7 g/ha [11] | pest or weed control at 2241.7 g/ha [12] | pest or weed control at 2241.7 g/ha [13] | pest or weed control at 2241.7 g/ha [14] | pest or weed control at 2241.7 g/ha [15] | pest or weed control at 2241.7 g/ha [16] | pest or weed control at 2241.7 g/ha [17] | pest or weed control at 2241.7 g/ha [18] | pest or weed control at 2241.7 g/ha [19] | pest or weed control at 2241.7 g/ha [20]
1 | CCOC(=O)C(C)Oc1ccc(Oc2ccc(C(F)(F)F)cc2Cl)cc1[N+](=O)[O-] (stereo not shown) [Example 9] | 0% | 0% | 0% | 0% | 0% | 0% | 90% | 0% | 0% | 0% | 0% | 50% | 0% | 0% | 0% | 40% | 20% | 40% | 0% | 0%
2 | CC(C)OC(=O)C(C)Oc1ccc(Oc2ccc(C(F)(F)F)cc2Cl)cc1 (stereo not shown) [Example 22] | 0% | 0% | 0% | 100% | 0% | 0% | 99% | 100% | 100% | 20% | 95% | 30% | 100% | 99% | 0% | 30% | 40% | 100% | 0% | 60%
3 | CCOC(=O)C(C)Oc1ccc(Oc2ccc(C(F)(F)F)cc2Cl)cc1Cl (stereo not shown) [Example 7] | 0% | 0% | 0% | 0% | 0% | 0% | 80% | 20% | 90% | 100% | 0% | 20% | 40% | 0% | 0% | 80% | 80% | 10% | 0% | 0%
4 | CCOC(=O)C(C)Oc1ccc(Sc2ccc(C(F)(F)F)cc2[N+](=O)[O-])cc1 (stereo not shown) [Example 48, Ethyl 2-[4-(2-nitro-4-trifluoromethylphenylthio)phenoxy] propionate] | 0% | 0% | 0% | 95% | 0% | 0% | 0% | 80% | 95% | 0% | 30% | 0% | 20% | 0% | 0% | 0% | 0% | 60% | 0% | 0%
5 | CCOC(=O)C(C)Oc1ccc(Oc2ccc(C(F)(F)F)cc2)cc1 (stereo not shown) [Example 27] | 0% | 0% | 0% | 100% | 0% | 0% | 60% | 100% | 100% | 95% | 99% | 100% | 100% | 100% | 0% | 70% | 40% | 100% | 0% | 99%
6 | C=CCOC(=O)C(C)Oc1ccc(Oc2ccc(C(F)(F)F)cc2Cl)cc1 (stereo not shown) [Example 24] | 0% | 30% | 100% | 100% | 0% | 0% | 95% | 100% | 100% | 20% | 99% | 50% | 100% | 100% | 0% | 20% | 80% | 100% | 0% | 80%
7 | CCCOC(=O)C(C)Oc1ccc(Oc2ccc(C(F)(F)F)cc2Cl)cc1 (stereo not shown) [Example 32] | 0% | 0% | 0% | 100% | 0% | 0% | 30% | 100% | 100% | 0% | 80% | 20% | 100% | 100% | 0% | 0% | 30% | 100% | 0% | 80%
8 | COCCOC(=O)C(C)Oc1ccc(Oc2ccc(C(F)(F)F)cc2Cl)cc1 (stereo not shown) [Example 25] | 0% | 30% | 0% | 100% | 40% | 0% | 95% | 100% | 100% | 40% | 95% | 30% | 100% | 80% | 0% | 20% | 60% | 100% | 0% | 70%

— patent publication US4335249A, “Herbicidal diphenyl ethers, sulfides, sulfoxides and sulfones” (Rohm and Haas Company, priority 1976, dated 1982)
